Reference: patent EP3189848B1, “A COMPOSITION COMPRISING TRIPEPTIDES FOR THE TREATMENT OF DISEASES OF THE JOINTS AND THE SPINE” (Zamerton Holdings Limited, priority 2014, dated 2016)

Experiments:
Type in all cases: in vivo
[1] = test system: patients with degenerative process occurring in the intervertebral joints and intervertebral discs; test: Clinical administration to patients with degenerative process of the spine (second group); details: 50 mg intramuscularly daily, 30 injections
Method: (§1) Example 3. Administration of the peptide composition and the peptide composition in combination with glucosamine sulfate and/or chondroitin sulfate to patients with degenerative-dystrophic diseases of the joints and the spine.
(§2) The studies were carried out in a group patients aged 40 - 65 years.
The second group (30 patients) was characterized by the degenerative process occurring in the intervertebral joints and intervertebral discs accompanied by deformation of the intervertebral discs and formation of osteophytes, which was manifested in the appearance of pain of varying intensity and duration.
A total of 10 patients in the second group received the peptide composition at a dose of 300 µg; 9 patients received glucosamine sulfate at a dose of 50 mg; and 11 patients received the composition of the peptides at a dose of 300 µg and glucosamine sulfate at a dose of 50 mg administered intramuscularly on a daily basis. The treatment course comprised 30 injections. A therapeutic effect associated with administration of glucosamine sulfate was achieved after at least 1 month of therapy. […]

[2] = test system: rats with experimental arthritis; test: Primary connective tissue metabolites in blood serum, rat model of systemic steroid (dexamethasone) arthritis; details: Day 56, daily i.m. 4 weeks, 50 mg/kg
Excerpt: Example 2. A study of the chondroprotective activity of a composition comprising peptides Lys-Asp-Glu, Ala-Asp-Glu, Asp-Glu-Gly, and an agent comprising peptides Lys-Asp-Glu, Ala-Asp-Glu, Asp-Glu-Gly and chondroitin sulfate and/or glucosamine sulfate using a rat-based model of systemic steroid arthritis.
Lyophilized powder consisting of peptides Lys-Asp-Glu, Ala-Asp-Glu, Asp-Glu-Gly was used to obtain the preparation for intramuscular injections.
The daily dose of the composition comprising peptides Lys-Asp-Glu, Ala-Asp-Glu, Asp-Glu-Gly was 50 µg/kg (at a weight ratio of the peptides of 1:1:1), 150 µg/kg (at a weight ratio of the peptides of 1:2:1), 300 µg/kg (at a weight ratio of the peptides of 0.1:1:10) or 600 µg/kg (at a weight ratio of the peptides of 1:1:3).
The daily dose of the composition comprising peptides Lys-Asp-Glu, Ala-Asp-Glu, Asp-Glu-Gly and glucosamine sulfate or chondroitin sulfate was 150 µg/kg of the peptides (at a weight ratio of the peptides of 1:2:1) and 50 mg/kg of glucosamine sulfate or chondroitin sulfate, or 300 µg/kg of the peptides (at a weight ratio of the peptides of 0.1:1:10) and 50 mg/kg of glucosamine sulfate or chondroitin sulfate, or 600 µg/kg of the peptides (at a weight ratio of the peptides of 1:1:3) and 50 mg/kg of glucosamine sulfate or chondroitin sulfate. […]
The study was conducted using white outbred male rats 4-5 months of age weighing 250-300 g obtained from the same litter (same age and weight, with normal primary clinical and biochemical analyses parameters). […] The first signs of the arthropathy were detected as early as week 2 of the experiment.
Starting from day 28 of the experiment, all animals received corresponding intramuscular doses of the preparations on a daily basis over 4 weeks. The degree of activity of the pathological process was evaluated using biochemical blood test parameters. […]
Clinical observation of the animals was implemented throughout the study; the functional state of the rat joints was monitored (degree of mobility, resistance to stress, swelling, hyperaemia). […]

[3] = test system: articular cartilages of the knee joints of the rats; test: Histomorphological and morphometric study of the articular cartilages of the knee joints (light microscopy, scoring system)
Method: The study was conducted using white outbred male rats 4-5 months of age weighing 250-300 g obtained from the same litter (same age and weight, with normal primary clinical and biochemical analyses parameters). Modeling of steroid arthritis was achieved by three single intramuscular injections of dexamethasone administered at an interval of 1 week at a dose of 7 mg/kg. The first signs of the arthropathy were detected as early as week 2 of the experiment.
Starting from day 28 of the experiment, all animals received corresponding intramuscular doses of the preparations on a daily basis over 4 weeks. The degree of activity of the pathological process was evaluated using biochemical blood test parameters. The following biochemical parameters were used as the parameters for evaluation of the intensity of progression of the pathological process in the experimental groups: the contents of sialic acids, glycoproteins, and chondroitin sulfates in the serum, as these parameters reflect the intensity of progression of the degenerative-dystrophic processes in the connective tissue.
Clinical observation of the animals was implemented throughout the study; the functional state of the rat joints was monitored (degree of mobility, resistance to stress, swelling, hyperaemia). The animals were decapitated under ether anesthesia at the end of the study (on day 56) to harvest biomaterials for biochemical and histomorphological studies.
In order to investigate the chondroprotective activity of the composition, a study of the condition of the morpho- and ultrastructure of the articular cartilages of the knee joints of the rats was carried out on day 56 of the experiment.
The histomorphological investigation of the articular cartilages was carried out using standard light microscopy techniques.
The morphometric measurements were carried out using an ocular micrometer: the cartilage thickness was determined using slide mounts; the measurements were taken at 3 individual points - the central part of the head, and the upper and lower edges. The thickness of the articular cartilages was expressed in conventional units. The density of chondrocytes per conventional unit area was also estimated. Statistical processing of the digital data obtained was performed using Student's t-test and non-parametric methods of analysis (Mann-Whitney U Test). […]

[4] = test system: patients with degenerative-dystrophic diseases of the joints; test: Clinical administration to patients with joint disease (first group); details: 500 mg, tablets twice a day three weeks then once daily
Method: as §1, §2
The first group (50 patients) was characterized by stiffness in the joints, as well as puffiness or swelling in the joints, which was manifested in the appearance of pain of varying intensity and duration.
A total of 15 patients in the first group were exposed to the peptide composition administered at a dose of 150 µg; 7 patients received glucosamine sulfate at a dose of 500 mg; 10 patients were treated with the composition of the peptides administered at a dose of 150 µg, glucosamine sulfate at a dose of 500 mg, and chondroitin sulfate at a dose of 50 mg; and 18 patients received the composition of the peptides administered at a dose of 150 µg and glucosamine sulfate at a dose of 500 mg in the form of tablets twice a day over the first three weeks and then once daily for up to 6 months. A sustained therapeutic effect associated with administration of glucosamine sulfate was achieved after at least 6 months of therapy. […]

[5] = test system: articular cartilages of rats with experimental arthritis; test: Electron microscopic study of the ultrastructure of the articular cartilages; details: 50 mg/kg
Method: The study of the ultrastructure of the articular cartilages of the rats was performed using conventional electron microscopy techniques.

`N[C@H]1C(O)O[C@H](CO)[C@@H](O)[C@@H]1O.O=S(=O)(O)O` (stereo partly shown) [Glucosamine sulfate] was tested. Which “therapy duration until therapeutic effect” value [1] did it give?
Its value is “at least 1 month”.

What about the Chondroitin sulfate [2] of the same compound?
The Chondroitin sulfate was 0.400 ± 0.027 g/L.

And the Glycoproteins [2]?
Its Glycoproteins is 3.59 ± 0.29 g/L.

And the Sialic acids [2]?
Its Sialic acids is 4.27 ± 0.34 mmol/L.

And the “morphology of the joints (slide mounts)” value ([3]; 50 mg/kg)?
The value was “improvement of the morphology in comparison to the control pathology animal group”.

What about the Cartilage thickness ([3]; day 56, 50 mg/kg) of the same compound?
Its Cartilage thickness is 14.10±1.06 conventional units.

And the “Cell density per conventional unit area” value ([3]; day 56, 50 mg/kg)?
Its value is 23.79±1.80.

What about the “Total score according to the cartilage condition evaluation system” value ([3]; day 56, 50 mg/kg) of the same compound?
The value was 16.2±1.3.

And the “therapy duration until sustained therapeutic effect” value [4]?
The value was “at least 6 months”.

What about the “ultrastructure of the cartilages” value [5] of the same compound?
Its value is “normalization of the ultrastructure of the cartilages accompanied by moderate degenerative-dystrophic manifestations in chondrocytes”.
